From ChEMBL document CHEMBL3632570, “Structure-Guided Design of Novel l-Cysteine Derivatives as Potent KSP Inhibitors” (ACS Med Chem Lett, 2015)
pIC50: −log10 of the molar value. Activity calls are given as the source filed them. No cut-off for these calls is given here.

What was measured:
[1] = target: T1, Chromosome-associated kinesin KIF4A (Homo sapiens) (UniProt O95239); experiment: Inhibition of microtubule-stimulated KIF4A motor domain (1 to 346) (unknown origin) ATPase activity at 6.3 uM
T1 sequence (whole entry): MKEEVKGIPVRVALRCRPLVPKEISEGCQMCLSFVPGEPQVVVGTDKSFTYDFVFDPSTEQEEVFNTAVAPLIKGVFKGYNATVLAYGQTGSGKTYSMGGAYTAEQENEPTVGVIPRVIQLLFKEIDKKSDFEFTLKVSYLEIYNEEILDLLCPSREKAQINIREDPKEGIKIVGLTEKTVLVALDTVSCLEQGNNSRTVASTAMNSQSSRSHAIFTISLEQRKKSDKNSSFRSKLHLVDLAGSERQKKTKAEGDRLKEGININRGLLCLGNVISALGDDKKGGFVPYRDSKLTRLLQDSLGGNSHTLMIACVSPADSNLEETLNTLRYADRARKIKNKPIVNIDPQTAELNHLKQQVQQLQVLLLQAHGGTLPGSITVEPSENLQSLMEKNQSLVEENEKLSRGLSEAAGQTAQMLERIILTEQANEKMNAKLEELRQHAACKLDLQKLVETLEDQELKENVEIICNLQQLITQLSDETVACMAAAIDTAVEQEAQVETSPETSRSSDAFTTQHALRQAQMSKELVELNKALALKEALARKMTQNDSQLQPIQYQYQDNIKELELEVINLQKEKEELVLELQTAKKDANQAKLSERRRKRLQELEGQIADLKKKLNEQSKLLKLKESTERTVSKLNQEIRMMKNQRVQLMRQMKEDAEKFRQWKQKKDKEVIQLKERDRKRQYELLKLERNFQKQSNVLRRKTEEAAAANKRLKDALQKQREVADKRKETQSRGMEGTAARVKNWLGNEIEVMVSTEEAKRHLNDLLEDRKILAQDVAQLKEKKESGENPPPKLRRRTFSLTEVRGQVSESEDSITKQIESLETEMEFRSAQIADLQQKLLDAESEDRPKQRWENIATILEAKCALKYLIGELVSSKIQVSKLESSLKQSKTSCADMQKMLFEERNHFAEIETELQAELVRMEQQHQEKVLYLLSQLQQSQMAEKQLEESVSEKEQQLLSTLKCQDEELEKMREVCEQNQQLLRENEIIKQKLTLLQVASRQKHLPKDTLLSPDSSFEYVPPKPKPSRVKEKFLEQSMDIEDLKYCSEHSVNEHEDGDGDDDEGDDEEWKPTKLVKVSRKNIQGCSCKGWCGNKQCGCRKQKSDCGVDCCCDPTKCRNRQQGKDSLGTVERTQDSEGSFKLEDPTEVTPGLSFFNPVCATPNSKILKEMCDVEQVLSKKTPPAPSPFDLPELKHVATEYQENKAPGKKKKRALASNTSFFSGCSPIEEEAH

HCT-116 = experiment: Growth inhibition of human HCT116 cells after 72 hrs by MTS assay; type: functional, cell-based; settings: HCT-116, 72 h
[2] = target: T2, Kinesin-like protein KIF23 (Homo sapiens) (UniProt Q02241); experiment: Inhibition of microtubule-stimulated MKLP1 motor domain (1 to 446) (unknown origin) ATPase activity at 6.3 uM
T2 sequence (whole entry): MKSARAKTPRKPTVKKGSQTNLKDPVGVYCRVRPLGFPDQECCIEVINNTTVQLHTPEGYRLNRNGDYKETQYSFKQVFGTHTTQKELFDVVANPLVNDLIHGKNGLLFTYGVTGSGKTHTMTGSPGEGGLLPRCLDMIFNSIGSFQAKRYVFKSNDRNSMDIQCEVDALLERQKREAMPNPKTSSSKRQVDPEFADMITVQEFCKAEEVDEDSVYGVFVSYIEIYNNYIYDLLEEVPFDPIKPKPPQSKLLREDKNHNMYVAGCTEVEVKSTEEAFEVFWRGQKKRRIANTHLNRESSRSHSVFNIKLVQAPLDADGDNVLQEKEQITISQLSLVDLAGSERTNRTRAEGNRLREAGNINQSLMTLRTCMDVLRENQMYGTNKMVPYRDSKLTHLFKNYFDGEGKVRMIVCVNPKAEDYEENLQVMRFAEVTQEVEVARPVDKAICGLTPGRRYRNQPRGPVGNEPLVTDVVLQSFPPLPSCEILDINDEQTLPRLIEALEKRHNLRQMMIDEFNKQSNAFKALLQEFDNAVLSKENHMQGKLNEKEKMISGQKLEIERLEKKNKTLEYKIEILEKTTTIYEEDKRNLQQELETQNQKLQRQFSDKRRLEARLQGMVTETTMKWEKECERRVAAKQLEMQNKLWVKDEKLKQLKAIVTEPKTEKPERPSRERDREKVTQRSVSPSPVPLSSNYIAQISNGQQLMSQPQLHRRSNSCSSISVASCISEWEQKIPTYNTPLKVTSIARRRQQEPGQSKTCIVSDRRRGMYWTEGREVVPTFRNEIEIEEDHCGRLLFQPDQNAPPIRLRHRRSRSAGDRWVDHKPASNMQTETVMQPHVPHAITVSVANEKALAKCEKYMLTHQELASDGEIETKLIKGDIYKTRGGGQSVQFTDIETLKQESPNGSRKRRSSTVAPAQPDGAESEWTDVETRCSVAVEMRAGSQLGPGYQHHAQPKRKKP

Structure (SMILES) | inhibition [1] | pIC50 (HCT-116) | inhibition [2]
N[C@@H](CSC1(c2ccc(C(F)(F)F)cc2)c2ccccc2CCc2ccccc21)C(=O)O | inactive | 7.96 | inactive
COc1ccc(C2(SC[C@H](N)C(=O)O)c3ccccc3CCc3ccccc32)cc1 | inactive | 7.55 | inactive
